Results as given in patent publication US8957086B2, “Compounds and methods of treating brain disorders” (The Board of Trustees of the University of Illinois, priority 2010, dated 2015).
“Also recorded” adds a separate entry of the source.

Columns and labels:
[1] = Stability in phosphate buffer (pH 7.4) monitored using HPLC; type: physicochemical; conditions: pH 7.4, HPLC
From the text: The stability of compounds of structural formula (II) in phosphate buffer (pH 7.4) was monitored using HPLC.

[2] = tested on: primary rat glial cultures; test: Attenuation of inflammatory response (nitrite production, Griess assay) in LPS-treated primary rat glial cultures; type: cell-based; conditions: primary rat glial cells, LPS/OGD, nitrite by Griess assay
Protocol: Attenuation of cytokine and inflammatory response by compounds of structural formula (I) were measured by induction of NOS reflected by inhibition of nitrite production in LPS/IFNγ treated primary rat glial cultures.
Primary mixed glia cultures were obtained as described previously (Vairano et al., 2002). Briefly, 1-2 day old Sprague Dawley rat pups were used to prepare primary mixed glial cultures. Cortices were dissected and meninges were removed. Tissues were cut into small pieces and transferred into PBS (without Ca^2+ and Mg^2+) containing 0.125% Trypsin and DNAse 35500 KU/ml, then incubated at 37° C. for 20 min. The cells were dissociated mechanically resuspended in DMEM (10% FBS), then grown in a T-75 flask. After 11-13 days in culture, the cells were replated at 2×10^5 cells/cm^2 in 96-well plates. Cells were used the next day.
Primary cultured cortical glia were incubated with LPS ([…]) in deoxygenated, glucose-free solution, pH 7.4, containing the following (in mM): NaCl 116, CaCl2 1.8, MgSO4 0.8, KCl 5.4, NaH2PO4 1, NaHCO3 14.7, HEPES 10. The cells were placed in a humidified 37° C. incubator (95% N2, 5% CO2) for 2 hours, then conditioned DMEM media containing LPS or PBS were given back to the cells. The tested compounds ([…]) or MAPK inhibitor (SB203580, […]) were present during and after the OGD. […] Cell viability was measured later by MTT assay. […]

scopolamine treated mice = test: Step through passive avoidance (STPA) in scopolamine treated mice; type: in vivo; conditions: i.p.
From the text: The scopolamine treatment results in mice having an attenuated cognitive function. STPA (step through passive avoidance task) is widely used to test long-term memory. The STPA apparatus consists of a two-compartment acrylic box with an illuminated side (15×12×12 cm) connected to a dark side (15×12×12 cm) by a vertical door. The dark side is equipped with an electric grid floor. During the habituation, animals were habituated to the normal behavior of rapidly translocating to the dark from the light side, where they were initially placed. Habituation trials are continued until latency of entering the dark side for each animal is less than 30 seconds. Animals that cannot pass this screening phase are excluded from the study. During the training, animals were trained by receiving an aversive electrical shock (0.5 mA, 2 sec), triggered by entry to the dark compartment, until the latency of entering the dark side reach 300 seconds. At 24 and 72 hours post-training, the animals again are individually placed in the light compartment and the latency to enter the dark compartment, without shock stimulus, is recorded. Statistical analysis of the latency data was performed with one-way ANOVA followed by Bonferroni multiple comparison test. For STPA tests using naïve animals, each animal was administered two ip injections. […]

[3] = tested on: primary rat cortical neuron cultures; test: Neuroprotection in primary rat cortical neuron cultures subjected to oxygen-glucose deprivation (OGD), MTT and LDH; type: cell-based; conditions: primary cultured rat cortical neurons, OGD 2 h + 24 h reoxygenation, 50 μM
Protocol: Neuroprotection by compounds of structural formula (I) in neurons using oxygen-glucose deprivation (OGD) followed by recovery for 24 hours in primary rat cortical neuron cultures, measured by LDH release and MTT viability was determined (FIG. 1).
Test compounds are compared to vehicle controls and the known neuroprotective agent CMZ. DMSO is dimethyl sulfoxide. Neuroprotection is represented by (i) a high cell viability relative to control as measured by the MIT assay and (ii) a low LDH activity as measured by assay of LDH. The abscissa in FIGS. 1A and 1B identify the compounds tested by GN number. The structures of AR-OH (also referred to as #00) and AR-N3 (also referred to as #9 or GN-9) are provided above. The structure of AR (also referred to as #10) and CMZ are as follows: […]
FIG. 1A illustrates the evaluation of neuroprotection in primary neurons subject to transient OGD assayed by MTT. […] Cell viability was measured 24 hours after reperfusion by MTT assay. Cell viability percentage was calculated relative to 100% protection from CMZ against OGD-reperfusion injury. […]
FIG. 1B illustrates the evaluation of neuroprotection in primary rat neurons subject to transient OGD assayed by LDH. […] Cell viability was measured 24 hours after reperusion by […]. Cell viability percentage was calculated relative to 100% cytoxicity from OGD-reperfusion in the presence of vehicle (DMSO). […]

[4] = Brain penetration in WT mice after i.p. injection, LC-MS (MRM); type: in vivo; conditions: i.p. 1 mg/kg, S/N ratio
Protocol: Compounds of structural formula (II), i.e., GN-29 and GN-205, were tested for an ability to penetrate the brain. WT mice were given an i.p. injection at a dose of 1 mg/kg, which is equivalent to transgenic mice studies. The presence of drugs in brain tissue was measured by LC-MS using MRM methods.

[5] = tested on: primary cortical cultures treated with human Aβ1-42; test: Neuroprotection in primary neurons treated with Aβ42 oligomers, with picrotoxin preincubation (MTT, LDH); type: cell-based; conditions: 100 μM picrotoxin 1 h preincubation, test compounds 50 μM, Aβ1-42 250 nM, 5 days
Protocol: FIGS. 3A and 3B illustrate neuroprotection in response to amyloid neurotoxicity afforded by compounds of structural formula (I). FIGS. 3A and 3B show neuroprotection in primary neurons treated with Aβ42. In particular, primary cortical cultures at 10-11 DIV were preincubated with 100 μM of picrotoxin for one hour, then perfused with test compounds at 50 μM. Soluble oligomers of human Aβ1-42 then were added at a physiologically relevant concentration of 250 nM. Cultures then were incubated for 5 days, after which time MTT and LDH assays were performed. Results were normalized to untreated DMSO and treated DMSO and statistical analysis was performed with ANOVA, with post-hoc Dunnet's MCT comparing to untreated DMSO, […], ***=p<0.001. Picrotoxin acts as a noncompetitive antagonist for the GABAA receptor chloride channels. It is therefore a channel blocker rather than a receptor antagonist.

[6] = tested on: CREB phosphorylated at serine 133; test: CREB phosphorylated at serine 133 in LaFerla 3×Tg AD mice; type: in vivo; conditions: 11 week treatment
From the text: (§1) Amyloid load also was reduced by drug treatment (data not shown).

LaFerla 3×Tg AD Mice = test: STPA latency in LaFerla 3×Tg AD mice after 11 week treatment; type: in vivo; conditions: for latency after 24 h in STPA: 11 week treatment
TNF-α = TNF-α ELISA on cortical/hippocampal protein homogenates of LaFerla 3×Tg AD mice; type: in vivo; conditions: 11 week treatment
From the text: as §1

**Q.** With `Cc1ncsc1C(NC(=O)C1(CO[N+](=O)[O-])CC1)c1ccccc1` (stereo not shown) [GN-44] as the compound, how does the “stability in phosphate buffer” value [1] read?
**A.** excellent stability

**Q.** For `Cc1ncsc1C(OCCOCCO[N+](=O)[O-])c1ccccc1` (stereo not shown) [GM-30], which “stability in phosphate buffer” value [1] is on record?
**A.** excellent stability

**Q.** With `Cc1ncsc1C(NC(=O)OCCCCO[N+](=O)[O-])c1ccccc1` (stereo not shown) [GN-203] as the compound, how does the “stability in phosphate buffer” value [1] read?
**A.** excellent stability

**Q.** For `Cc1ncsc1C(c1ccccc1)n1cc(-c2cccnc2)nn1` (stereo not shown) [GN-12], which “attenuation of inflammatory response” value [2] is on record?
**A.** attenuation of inflammatory response; also recorded: superior neuroprotective and anti-neuroinflammatory activities

**Q.** What about the “reversal of cognition deficit (STPA)” value (scopolamine treated mice) of the same compound?
**A.** reverse a cognition deficit

**Q.** What about the neuroprotection [3] of the same compound?
**A.** substantial neuroprotection; also recorded: superior neuroprotective and anti-neuroinflammatory activities

**Q.** With `Cc1ncsc1C(CO[N+](=O)[O-])n1cc(-c2cccnc2)nn1` (stereo not shown) [GN-205] as the compound, how does the “presence in brain tissue (bioavailability in the brain)” value [4] read?
**A.** highly bioavailable in the brain

**Q.** For picrotoxin, which “effect of picrotoxin on neuroprotection by test compounds” value [5] is on record?
**A.** blocks the neuroprotective actions of the test compounds

**Q.** For `Cc1ncsc1C(CO[N+](=O)[O-])c1ccccc1` (stereo not shown) [GN-29], which “levels of CREB phosphorylated at serine 133” value [6] is on record?
**A.** 1.2±0.16 units/mg protein

**Q.** And the “latency after 24 h in STPA” value (LaFerla 3×Tg AD Mice)?
**A.** 277 ± 14 s

**Q.** And the “cognitive deficit in the transgenic mouse model” value (LaFerla 3×Tg AD Mice; in words)?
**A.** reverses a cognitive deficit

**Q.** And the “presence in brain tissue (bioavailability in the brain)” value [4]?
**A.** highly bioavailable in the brain

**Q.** And the “levels of TNF-α” value (TNF-α)?
**A.** 1.70±0.09 μg/mg protein

**Q.** Which “levels of CREB phosphorylated at serine 133” value [6] does the source give for `Cc1ncsc1CC[N+](=O)[O-]` [GT-1061, reference compound] here?
**A.** 1.07±0.11 units/mg protein

**Q.** What about the “latency after 24 h in STPA” value (LaFerla 3×Tg AD Mice) of the same compound?
**A.** 248 ± 35 s

**Q.** And the “levels of TNF-α” value (TNF-α)?
**A.** 2.18±0.34 μg/mg protein
